Where two headings read alike, the source gives them in different places.
How the values were obtained:
Format in all cases: biochemical
Conditions in all cases: read-out: % inhibition at 1 mM
[1] = target: T1, CmMan5A (Cellvibrio mixtus, UniProt Q6QT42); test: residual activity with 4MU-beta-Man after preincubation; intact MS
T1 construct: gene man5A; recombinant, codon-optimised gene in pET24a (NdeI/XhoI), C-terminal 6xHis, E. coli; matches previously crystallised form; GH5
T1 sequence (Q6QT42 26-456): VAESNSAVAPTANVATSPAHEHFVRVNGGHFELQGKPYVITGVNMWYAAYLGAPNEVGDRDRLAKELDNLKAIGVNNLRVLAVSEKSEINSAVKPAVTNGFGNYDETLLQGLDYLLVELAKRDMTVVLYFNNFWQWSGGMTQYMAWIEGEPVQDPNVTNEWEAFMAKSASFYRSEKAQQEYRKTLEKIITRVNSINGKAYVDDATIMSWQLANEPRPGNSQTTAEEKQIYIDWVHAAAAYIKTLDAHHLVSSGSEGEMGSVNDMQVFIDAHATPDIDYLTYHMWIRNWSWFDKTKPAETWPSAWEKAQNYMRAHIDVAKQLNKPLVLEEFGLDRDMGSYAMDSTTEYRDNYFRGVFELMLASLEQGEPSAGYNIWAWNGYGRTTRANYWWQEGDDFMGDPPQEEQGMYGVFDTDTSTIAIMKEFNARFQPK

[2] = target: T2, BsGH164 (Bacteroides salyersiae, UniProt I9SUA3); test: residual activity with 4MU-beta-Man after preincubation; covalent crystal structure ([…] A) and intact MS
T2 construct: gene HMPREF1071_03408; recombinant pET28-His6-BsGH164, E. coli, His6 kept; GH164 exo-beta-mannosidase
T2 sequence (I9SUA3 20-673): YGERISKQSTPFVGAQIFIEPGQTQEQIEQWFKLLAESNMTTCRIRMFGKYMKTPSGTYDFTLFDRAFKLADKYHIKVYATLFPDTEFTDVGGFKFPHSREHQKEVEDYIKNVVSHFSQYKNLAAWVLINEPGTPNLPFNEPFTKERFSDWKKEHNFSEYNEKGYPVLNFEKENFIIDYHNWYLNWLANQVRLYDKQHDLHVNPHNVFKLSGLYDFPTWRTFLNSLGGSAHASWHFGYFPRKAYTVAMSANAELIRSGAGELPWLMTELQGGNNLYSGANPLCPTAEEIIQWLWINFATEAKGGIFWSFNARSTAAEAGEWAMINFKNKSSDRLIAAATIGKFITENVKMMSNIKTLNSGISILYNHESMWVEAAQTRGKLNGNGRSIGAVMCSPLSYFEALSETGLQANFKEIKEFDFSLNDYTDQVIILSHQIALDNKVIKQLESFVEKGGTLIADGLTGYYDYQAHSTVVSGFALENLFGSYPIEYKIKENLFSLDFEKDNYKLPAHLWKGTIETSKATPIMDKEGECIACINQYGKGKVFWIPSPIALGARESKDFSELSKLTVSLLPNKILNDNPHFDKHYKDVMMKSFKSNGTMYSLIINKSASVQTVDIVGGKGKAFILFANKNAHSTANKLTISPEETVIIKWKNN

[3] = target: T2, BsGH164; test: as above; remark: listed apart in the source
[4] = target: T1, CmMan5A; test: as above
[5] = target: T3, BtMan2A (Bacteroides thetaiotaomicron, UniProt Q8AAK6); test: as above
T3 construct: gene BT_0458; recombinant pET28a-BtMan2A-His6, E. coli, His tag kept; GH2 exo-beta-mannosidase
T3 sequence (Q8AAK6 26-864): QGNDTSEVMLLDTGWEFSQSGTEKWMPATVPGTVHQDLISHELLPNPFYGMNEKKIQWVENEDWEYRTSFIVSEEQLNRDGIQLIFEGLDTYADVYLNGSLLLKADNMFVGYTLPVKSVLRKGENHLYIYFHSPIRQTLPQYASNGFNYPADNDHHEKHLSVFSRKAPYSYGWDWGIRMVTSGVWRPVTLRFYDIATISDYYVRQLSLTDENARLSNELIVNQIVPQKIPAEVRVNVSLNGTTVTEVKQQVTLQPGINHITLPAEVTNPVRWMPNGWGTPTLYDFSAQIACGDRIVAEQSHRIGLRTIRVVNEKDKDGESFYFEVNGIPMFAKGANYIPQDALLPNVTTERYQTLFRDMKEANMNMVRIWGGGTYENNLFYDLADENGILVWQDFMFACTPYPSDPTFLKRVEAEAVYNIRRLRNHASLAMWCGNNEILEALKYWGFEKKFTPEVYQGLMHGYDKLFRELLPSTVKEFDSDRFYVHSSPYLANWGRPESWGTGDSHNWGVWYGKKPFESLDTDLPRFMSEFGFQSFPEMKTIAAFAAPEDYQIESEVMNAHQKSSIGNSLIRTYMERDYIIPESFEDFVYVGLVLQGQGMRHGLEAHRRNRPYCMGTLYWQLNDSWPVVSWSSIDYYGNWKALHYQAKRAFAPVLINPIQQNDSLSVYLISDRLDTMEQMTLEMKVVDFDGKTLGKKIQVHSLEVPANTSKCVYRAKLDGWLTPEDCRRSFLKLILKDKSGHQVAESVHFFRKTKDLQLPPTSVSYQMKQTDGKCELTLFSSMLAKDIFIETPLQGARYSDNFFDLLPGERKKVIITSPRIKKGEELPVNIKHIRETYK

Row | Compound | inhibition at 1000 µM [1] [%] | inhibition at 1000 µM [2] [%] | inhibition at 1000 µM [3] [%] | inhibition at 1000 µM [4] [%] | inhibition at 1000 µM [5] [%]
1 | OC[C@@H]1[C@@H](O)[C@H](O)[C@H](O)[C@@H]2O[C@H]12 [compound 1, β-D-manno-cyclophellitol] | 20 | 76 |  |  | 
2 | OC[C@@H]1[C@@H](O)[C@H](O)[C@H](O)[C@@H]2N[C@H]12 [compound 2, β-D-manno-cyclophellitol aziridine] | 20 |  | 30 |  | 
3 | [N-]=[N+]=NCCCCCCCCN1[C@@H]2[C@H](CO)[C@@H](O)[C@H](O)[C@H](O)[C@@H]21 (stereo partly drawn) [compound 3, N-octylazido aziridine 3] |  |  |  | 85 | 85
